The test system of data set [1] is NK-92 cells. The data set can be described thus: Live-cell confocal microscopy of NK-92 cells. Format: cell-based, human. Particulars: 3,4-dichloroisocoumarin 5 μM, 2 h prior to labeling with compound 9 (5 μM, 1 h). As to the method:
Figure S9. Brightfield and fluorescence confocal microscopy merged images of live NK-92 cells upon incubation with compound 9. Representative microscopy images from 3 independent experiments of live NK-92 cells upon incubation with […]
dichloroisocoumarin (5 µM) was used as a GzmA inhibitor for 2 h prior to labeling.
(§1) 5.0) prior to the enzyme assays.
(§2) All the tubes were incubated
(§3) NK- 92 cell inhibition and imaging. […]
(§4) Microsystems) and qualitatively analysed using Fiji.

For data set [2], the system named is active GzmA secreted by NK-92 cells. The data set can be described thus: Detection of active GzmA in supernatants of stimulated NK-92 cells. In kind it is cell-based, human. To be noted: supernatants of stimulated NK-92 cells + compound 9.
Excerpt: Encouraged by the high reactivity of compound 9, we evaluated its potential application to detect active GzmA secreted by immune cells. NK cell‐based therapies are regarded as potential anticancer treatments due to their ability to secrete granzymes to the extracellular space and cause cytotoxicity in cancer cells.[24] […] To test the utility of compound 9 to measure active GzmA in cell supernatants, we performed degranulation assays in human NK‐92 cells (e.g., a patient‐derived cell line that expresses higher levels of GzmA than healthy NK cells)[25] and also tested GzmA‐negative cells (e.g., HaCaT keratinocytes, Figure S8). NK‐92 cells were stimulated with […] and ionomycin (Figure 5).[26] Cell supernatants were collected and incubated with compound 9 for 1 h, followed by spectroscopic measurements. […] Previous reports indicate that granzyme activity can be detected inside NK‐92 cells[[11b]] and that granzymes can be found within activated immune cells due to intracellular granular leakage,[27] even though granzyme activity is known to be reduced in acidic granules. To study this observation, we performed Z‐stack live‐cell confocal microscopy in NK‐92 cells after incubation with compound 9.
as §1, §2, §3, §4

Data set [3] concerns the target T1, hGzmA (Homo sapiens, UniProt P12544).
T1 construct: in the absence or presence of active recombinant hGzmA
T1 sequence (P12544 29-262): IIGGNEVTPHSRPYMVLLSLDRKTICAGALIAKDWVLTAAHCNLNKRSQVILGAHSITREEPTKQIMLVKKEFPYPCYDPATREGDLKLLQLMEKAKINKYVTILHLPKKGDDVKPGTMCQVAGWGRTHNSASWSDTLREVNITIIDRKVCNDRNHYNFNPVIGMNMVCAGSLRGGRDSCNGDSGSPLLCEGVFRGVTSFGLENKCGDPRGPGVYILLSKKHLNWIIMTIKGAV
In words: Inhibition by 3,4-dichloroisocoumarin of the fluorescence of compound 9 with hGzmA. In kind it is biochemical. Particulars: 3,4-dichloroisocoumarin 100 μM, compound 9 20 μM, hGzmA 20 nM, Tris buffer (pH 8).

Data set [4] is described as follows: Chemical stability in aqueous buffers by HPLC-MS (no enzyme). In kind it is physicochemical. Particulars: for chemical stability at other pH (in words): basic and acid media. As to the method: Figure 2 Solid‐phase peptide synthesis (SPPS) of the sequence Ac‐IGNR‐OH (compound 1) and corresponding analogues containing spacers with different connectivities. The synthesis of compounds 1–4 is described in the Supporting Information. […] TEXT PRINTED IN THE PICTURE: 2 (ester): pH 4: < 5%; pH 7: < 5%; pH 10: < 5% | 3 (thioester): pH 4: 70%; pH 7: < 5%; pH 10: < 5% | 4 (amide): pH 4: > 95%; pH 7: > 95%; pH 10: > 95%
First, we synthesized a large batch (>400 mg) of Ac‐IGNR‐OH using standard protocols for the solid‐phase synthesis of fluorescent peptides[20] in polystyrene resin derivatized with a 2‐chlorotritylchloride linker (PS‐CTC). Next, we coupled the tetrapeptide Ac‐IGNR‐OH (compound 1, Figure 2) to different aryl groups to generate the isosteric ester, thioester and amide analogues (compounds 2, 3 and 4 respectively, Figure 2). After isolation of all compounds by semi‐preparative HPLC with purities >95 %, we analyzed their chemical stability in aqueous media in the absence of hGzmA. […] We also tested their chemical integrity at different pH values because GzmA can be stored in slightly acidic cytotoxic granules inside CTLs.[21]

The nature of data set [5]: Emission wavelength / spectral properties. In kind it is physicochemical. Particulars: comparison of compound 9 and Z-FR-AMC.
Where [6] appears, read: Tris buffer (pH 7.4), absence of hGzmA, HPLC-MS.
The mark [7] stands for this setting: pH 4, aqueous buffer, 2 h at 37 °C, HPLC-MS.
Setting [8] is: pH 7, aqueous buffer, 2 h at 37 °C, HPLC-MS.
The mark [9] stands for this setting: pH 10, aqueous buffer, 2 h at 37 °C, HPLC-MS.

Where a SMILES comes first, the peptide text is derived from it. The star is where a group is joined. NH(4-Me-phenyl) = Cc1ccc(N*)cc1; AMC = Cc1cc(=O)oc2cc(N*)ccc12; Cbz = O=C(OCc1ccccc1)*; X1 = Cc1ccc(S*)cc1; X2 = Cc1ccc(O*)cc1

`O=c1oc(Cl)c(Cl)c2ccccc12` [3,4‐dichloroisocoumarin]: the “effect of inhibitor on intracellular fluorescence (in words)” value in data set [1] is given as “reduced”. Further, the “effect of inhibitor on supernatant fluorescence (in words)” value in data set [2] was “blocked”. Further, the “decrease of the fluorescence signal” value in data set [3] is above 90%.
As to `CC[C@H](C)[C@H](NC(C)=O)C(=O)NCC(=O)N[C@@H](CC(N)=O)C(=O)N[C@@H](CCCNC(=N)N)C(=O)Oc1ccc(C)cc1` [compound 2] (Ac-IGNR-X2), the “chemical stability (in words)” value in data set [4] (setting [6]) is “completely hydrolyzed”. The “stability (% by HPLC-MS)” value in data set [4] (setting [7]), in data set [4] (setting [8]) and in data set [4] (setting [9]) was below 5% each time.
For orientation: share remaining means the share of the starting amount still present when the sample was taken. A low value points to a greater loss. With `CC[C@H](C)[C@H](NC(C)=O)C(=O)NCC(=O)N[C@@H](CC(N)=O)C(=O)N[C@@H](CCCNC(=N)N)C(=O)Sc1ccc(C)cc1` [compound 3] (Ac-IGNR-X1), the “chemical stability (in words)” value in data set [4] (setting [6]) was “completely hydrolyzed”. Further, the “chemical stability at other pH (in words)” value in data set [4] (HPLC-MS, 2 h at 37 °C) was “more stable than the carboxylic ester analogue 2 at acidic pH”. Besides, the fraction remaining at 2 h in data set [4] (setting [7]) came to 70%. For the same molecule, the “stability (% by HPLC-MS)” value in data set [4] (setting [8]) and in data set [4] (setting [9]) was below 5% throughout.
In the case of `CC[C@H](C)[C@H](NC(C)=O)C(=O)NCC(=O)N[C@@H](CC(N)=O)C(=O)N[C@@H](CCCNC(=N)N)C(=O)Nc1ccc(C)cc1` [compound 4] (Ac-IGNR-{NH(4-Me-phenyl)}), the purity after incubation in data set [4] (Tris buffer (pH 7.4), absence of hGzmA) is on record as above 95%. Moreover, the “chemical stability (in words)” value in data set [4] (setting [6]) is “fully stable”. Besides, in data set [4] (HPLC-MS, 2 h at 37 °C), the “chemical stability at other pH (in words)” value is “stable in basic and acid media”. Moreover, the “stability (% by HPLC-MS)” value in data set [4] (setting [7]), in data set [4] (setting [8]) and in data set [4] (setting [9]) was above 95% in each case.
Consider Cbz-Phe-Arg-{AMC}, for which the emission wavelength in data set [5] turned out to be 445 nm.

(Values after article PMC10108010, “Fluorogenic Granzyme A Substrates Enable Real‐Time Imaging of Adaptive Immune Cell Activity” (Angewandte Chemie (International Ed. in English), 2023).)
